# Measurements reported in PubChem BioAssay (NCI).
#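 Values below derive from 48-hour exposures of cells grown in 96-well plates, with endpoints linearly interpolated between the two concentrations bracketing the appropriate inhibition level. GI50 = concentration required for 50% inhibition of growth. TGI: total growth inhibition.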
# Key:
# Assay in all cases: NCI anticancer screen, dose series, 48 h
# 786-0 renal = test system: 786-0 renal
# A498 renal = test system: A498 renal
# A549 NSCLC = test system: A549 NSCLC
# ACHN renal = test system: ACHN renal
# BT-549 breast = test system: BT-549 breast
# CAKI-1 renal = test system: CAKI-1 renal
# CCRF-CEM leukemia = test system: CCRF-CEM leukemia
# COLO 205 colon = test system: COLO 205 colon
# DU-145 prostate = test system: DU-145 prostate
# EKVX NSCLC = test system: EKVX NSCLC
# HCC-2998 colon = test system: HCC-2998 colon
# HCT-116 colon = test system: HCT-116 colon
# HCT-15 colon = test system: HCT-15 colon
# HL-60(TB) leukemia = test system: HL-60(TB) leukemia
# HOP-62 NSCLC = test system: HOP-62 NSCLC
# HOP-92 NSCLC = test system: HOP-92 NSCLC
# HT29 colon = test system: HT29 colon
# IGROV1 ovarian = test system: IGROV1 ovarian
# K-562 leukemia = test system: K-562 leukemia
# KM12 colon = test system: KM12 colon
# LOX IMVI melanoma = test system: LOX IMVI melanoma
# M14 melanoma = test system: M14 melanoma
# MALME-3M melanoma = test system: MALME-3M melanoma
# MDA-MB-231 breast = test system: MDA-MB-231 breast
# MDA-MB-435 = test system: MDA-MB-435
# MOLT-4 leukemia = test system: MOLT-4 leukemia
# NCI-H226 lung = test system: NCI-H226 lung
# NCI-H23 lung = test system: NCI-H23 lung
# NCI-H460 lung = test system: NCI-H460 lung
# NCI-H522 lung = test system: NCI-H522 lung
# NCI/ADR-RES ovarian = test system: NCI/ADR-RES ovarian
# OVCAR-3 ovarian = test system: OVCAR-3 ovarian
# OVCAR-4 ovarian = test system: OVCAR-4 ovarian
# OVCAR-5 ovarian = test system: OVCAR-5 ovarian
# OVCAR-8 ovarian = test system: OVCAR-8 ovarian
# PC-3 prostate = test system: PC-3 prostate
# RPMI-8226 leukemia = test system: RPMI-8226 leukemia
# RXF 393 renal = test system: RXF 393 renal
# SF-268 CNS = test system: SF-268 CNS
# SF-295 CNS = test system: SF-295 CNS
# SF-539 CNS = test system: SF-539 CNS
# SK-MEL-2 melanoma = test system: SK-MEL-2 melanoma
# SK-MEL-28 melanoma = test system: SK-MEL-28 melanoma
# SK-MEL-5 melanoma = test system: SK-MEL-5 melanoma
# SK-OV-3 ovarian = test system: SK-OV-3 ovarian
# SN12C renal = test system: SN12C renal
# SNB-19 CNS = test system: SNB-19 CNS
# SNB-75 CNS = test system: SNB-75 CNS
# SR leukemia = test system: SR leukemia
# SW-620 colon = test system: SW-620 colon
# T-47D breast = test system: T-47D breast
# TK-10 renal = test system: TK-10 renal
# U251 CNS = test system: U251 CNS
# UACC-257 melanoma = test system: UACC-257 melanoma
# UACC-62 melanoma = test system: UACC-62 melanoma
# UO-31 renal = test system: UO-31 renal
smiles,measurement,setting,value
CN(C)CCOc1cccc(NC2=C(Cl)C(=O)C(Nc3cccc(OCCN(C)C)c3)=C(Cl)C2=O)c1,GI50,786-0 renal,490 nM
same,TGI,786-0 renal,1120 nM
same,GI50,A498 renal,1640 nM
same,TGI,A498 renal,3260 nM
same,GI50,A549 NSCLC,2190 nM
same,TGI,A549 NSCLC,3980 nM
same,GI50,ACHN renal,219 nM
same,TGI,ACHN renal,465 nM
same,GI50,BT-549 breast,1720 nM
same,TGI,BT-549 breast,3120 nM
same,GI50,CAKI-1 renal,1440 nM
same,TGI,CAKI-1 renal,2810 nM
same,GI50,CCRF-CEM leukemia,256 nM
same,TGI,CCRF-CEM leukemia,932 nM
same,GI50,COLO 205 colon,258 nM
same,TGI,COLO 205 colon,684 nM
same,GI50,DU-145 prostate,366 nM
same,TGI,DU-145 prostate,1270 nM
same,GI50,EKVX NSCLC,794 nM
same,TGI,EKVX NSCLC,2130 nM
same,GI50,HCC-2998 colon,1440 nM
same,TGI,HCC-2998 colon,3000 nM
same,GI50,HCT-116 colon,180 nM
same,TGI,HCT-116 colon,385 nM
same,GI50,HCT-15 colon,350 nM
same,TGI,HCT-15 colon,1400 nM
same,GI50,HL-60(TB) leukemia,751 nM
same,TGI,HL-60(TB) leukemia,2610 nM
same,GI50,HOP-62 NSCLC,2100 nM
same,TGI,HOP-62 NSCLC,4220 nM
same,GI50,HOP-92 NSCLC,184 nM
same,TGI,HOP-92 NSCLC,408 nM
same,GI50,HT29 colon,258 nM
same,TGI,HT29 colon,666 nM
same,GI50,IGROV1 ovarian,235 nM
same,TGI,IGROV1 ovarian,663 nM
same,GI50,K-562 leukemia,162 nM
same,TGI,K-562 leukemia,608 nM
same,GI50,KM12 colon,1330 nM
same,TGI,KM12 colon,2920 nM
same,GI50,LOX IMVI melanoma,191 nM
same,TGI,LOX IMVI melanoma,407 nM
same,GI50,M14 melanoma,1140 nM
same,TGI,M14 melanoma,2530 nM
same,GI50,MALME-3M melanoma,275 nM
same,TGI,MALME-3M melanoma,827 nM
same,GI50,MDA-MB-231 breast,540 nM
same,TGI,MDA-MB-231 breast,1170 nM
same,GI50,MDA-MB-435,666 nM
same,TGI,MDA-MB-435,1900 nM
same,GI50,MOLT-4 leukemia,255 nM
same,TGI,MOLT-4 leukemia,844 nM
same,GI50,NCI-H226 lung,1810 nM
same,TGI,NCI-H226 lung,3930 nM
same,GI50,NCI-H23 lung,323 nM
same,TGI,NCI-H23 lung,1350 nM
same,GI50,NCI-H460 lung,1570 nM
same,TGI,NCI-H460 lung,3270 nM
same,GI50,NCI-H522 lung,194 nM
same,TGI,NCI-H522 lung,460 nM
same,GI50,NCI/ADR-RES ovarian,2440 nM
same,TGI,NCI/ADR-RES ovarian,> 26400 nM
same,GI50,OVCAR-3 ovarian,180 nM
same,TGI,OVCAR-3 ovarian,334 nM
same,GI50,OVCAR-4 ovarian,170 nM
same,TGI,OVCAR-4 ovarian,329 nM
same,GI50,OVCAR-5 ovarian,1840 nM
same,TGI,OVCAR-5 ovarian,3400 nM
same,GI50,OVCAR-8 ovarian,1130 nM
same,TGI,OVCAR-8 ovarian,2910 nM
same,GI50,PC-3 prostate,1520 nM
same,TGI,PC-3 prostate,3250 nM
same,GI50,RPMI-8226 leukemia,306 nM
same,TGI,RPMI-8226 leukemia,1030 nM
same,GI50,RXF 393 renal,358 nM
same,TGI,RXF 393 renal,1210 nM
same,GI50,SF-268 CNS,1700 nM
same,TGI,SF-268 CNS,3480 nM
same,GI50,SF-295 CNS,2360 nM
same,TGI,SF-295 CNS,5920 nM
same,GI50,SF-539 CNS,1620 nM
same,TGI,SF-539 CNS,2980 nM
same,GI50,SK-MEL-2 melanoma,1110 nM
same,TGI,SK-MEL-2 melanoma,2610 nM
same,GI50,SK-MEL-28 melanoma,1030 nM
same,TGI,SK-MEL-28 melanoma,2490 nM
same,GI50,SK-MEL-5 melanoma,792 nM
same,TGI,SK-MEL-5 melanoma,2040 nM
same,GI50,SK-OV-3 ovarian,11300 nM
same,TGI,SK-OV-3 ovarian,23400 nM
same,GI50,SN12C renal,427 nM
same,TGI,SN12C renal,886 nM
same,GI50,SNB-19 CNS,1720 nM
same,TGI,SNB-19 CNS,3310 nM
same,GI50,SNB-75 CNS,1930 nM
same,TGI,SNB-75 CNS,4870 nM
same,GI50,SR leukemia,218 nM
same,TGI,SR leukemia,783 nM
same,GI50,SW-620 colon,207 nM
same,TGI,SW-620 colon,438 nM
same,GI50,T-47D breast,189 nM
same,TGI,T-47D breast,453 nM
same,GI50,TK-10 renal,234 nM
same,TGI,TK-10 renal,513 nM
same,GI50,U251 CNS,1470 nM
same,TGI,U251 CNS,2930 nM
same,GI50,UACC-257 melanoma,765 nM
same,TGI,UACC-257 melanoma,2030 nM
same,GI50,UACC-62 melanoma,1200 nM
same,TGI,UACC-62 melanoma,2570 nM
same,GI50,UO-31 renal,498 nM
same,TGI,UO-31 renal,979 nM
